≈ marks a conversion by molar mass, not a printed value.

This test deals with MCF7. Nature of the test: Cytotoxicity against human MCF7 cells after 72 hrs by sulforhodamine B assay. The format is functional, cell-based. To be noted: MCF7, 72 h.
Compound `CO[C@]12C=C3C(=O)c4c(O)cccc4O[C@@]34C[C@@H]1C(C)(C)O[C@]2(CC=C(C)C)C4=O` (racemic) displayed an IC50 of more than 5 µg/mL.

In the case of `CO[C@]12C=C3C(=O)c4c(O)cccc4O[C@@]34[C@@H](C1)C(C)(C)O[C@]4(CC=C(C)C)C2=O` (racemic), the midpoint of inhibition, the IC50, lay at 0.36 µg/mL (≈ 0.877 µM).

`COC(=O)[C@@]1(CC=C(C)C)OC(C)(C)[C@@H]2CC(=O)C=C3C(=O)c4c(O)cccc4O[C@]321` (racemic) displayed an IC50 of more than 5 µg/mL. On to `CC[C@@]1(O)C(=O)OCc2c1cc1n(c2=O)Cc2cc3ccccc3nc2-1` [CAMPTOTHECIN], for which the concentration for half-maximal inhibition (IC50) is less than 0.024 µg/mL.

Source of the values: ChEMBL document CHEMBL3352309, “Three types of cytotoxic natural caged-scaffolds: pure enantiomers or partial racemates” (J Nat Prod, 2014).
